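96-well plates; 48 h exposure; 5 concentrations. Endpoints by linear interpolation between flanking doses. Not reached: highest tested concentration assigned. GI50 = concentration required for 50% inhibition of growth. TGI is the concentration that stops growth completely.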
Experiments:
Experiment in all cases: NCI-60 cell line screen, 48 h
ACHN renal = tested on: ACHN renal
RPMI-8226 leukemia = tested on: RPMI-8226 leukemia
SK-MEL-5 melanoma = tested on: SK-MEL-5 melanoma
SN12C renal = tested on: SN12C renal
SNB-19 CNS = tested on: SNB-19 CNS
SR leukemia = tested on: SR leukemia
SW-620 colon = tested on: SW-620 colon
TK-10 renal = tested on: TK-10 renal
OVCAR-4 ovarian = tested on: OVCAR-4 ovarian
NCI-H226 lung = tested on: NCI-H226 lung

| Structure (SMILES) | GI50 (ACHN renal) | TGI (ACHN renal) | GI50 (RPMI-8226 leukemia) | TGI (RPMI-8226 leukemia) | GI50 (SK-MEL-5 melanoma) | TGI (SK-MEL-5 melanoma) | GI50 (SN12C renal) | TGI (SN12C renal) | GI50 (SNB-19 CNS) | TGI (SNB-19 CNS) | GI50 (SR leukemia) | TGI (SR leukemia) | GI50 (SW-620 colon) | TGI (SW-620 colon) | GI50 (TK-10 renal) | TGI (TK-10 renal) | TGI (OVCAR-4 ovarian) | TGI (NCI-H226 lung) | GI50 (NCI-H226 lung) | GI50 (OVCAR-4 ovarian) |
| --- | --- | --- | --- | --- | --- | --- | --- | --- | --- | --- | --- | --- | --- | --- | --- | --- | --- | --- | --- | --- |
| O=C1/C(=C/c2ccccc2Cl)N=C(c2ccccc2)N1Cc1ccco1 | > 100 µM | > 100 µM | 25.4 µM | > 100 µM | 17.9 µM | 36.3 µM | 50.6 µM | > 100 µM | > 100 µM | > 100 µM | 26.2 µM | > 100 µM | 89.6 µM | > 100 µM | > 100 µM | > 100 µM | – | – | – | – |
| COc1ccc(C(c2ccc(C(C)C)cc(=O)c2O)c2c(O)cc3oc(-c4ccccc4)cc(=O)c3c2O)cc1 (stereo not drawn) | – | 45.6 µM | – | 37.3 µM | – | 29.4 µM | – | 70.9 µM | – | 16.7 µM | – | – | – | > 100 µM | – | 90.3 µM | 23 µM | – | – | – |
| O=c1c2ccc3cccc4c(=O)cc(c5ccccc15)-c2c34 | – | > 100 µM | – | – | – | > 100 µM | – | > 100 µM | – | > 100 µM | – | > 100 µM | – | > 100 µM | – | > 100 µM | > 100 µM | > 100 µM | – | – |
| CCCCCCCCCCCC(=O)OCC1OC(n2cc(F)c(=O)[nH]c2=O)C(N)C(OC(=O)CCCCCCCCCCC)C1O (stereo not drawn) | – | > 100 µM | – | > 100 µM | – | 30.5 µM | – | > 100 µM | – | > 100 µM | – | > 100 µM | – | > 100 µM | – | > 100 µM | > 100 µM | – | – | – |
| CCCNCc1nc2ccc(Br)cc2c(=O)n1CCC | – | 29.6 µM | – | > 100 µM | – | 21.6 µM | – | 26.7 µM | – | 30.5 µM | – | > 100 µM | – | 28.3 µM | – | – | 27.7 µM | 26 µM | – | – |
| Nc1cc(-c2ccccc2)ccc1O | 54.6 µM | > 100 µM | – | – | > 100 µM | > 100 µM | 68.9 µM | > 100 µM | > 100 µM | > 100 µM | 33.9 µM | > 100 µM | > 100 µM | > 100 µM | > 100 µM | > 100 µM | > 100 µM | > 100 µM | > 100 µM | 36.5 µM |
| O=c1ccccc2cccc(O)c12 | – | > 100 µM | – | > 100 µM | – | > 100 µM | – | > 100 µM | – | > 100 µM | – | – | – | > 100 µM | – | > 100 µM | > 100 µM | – | – | – |
| COc1ccc2c(c1)CC[C@@H]1[C@@H]2CC[C@@]2(C)[C@H]1CC1(CCCCC1)[C@@H]2O | 14.7 µM | 28.2 µM | 2.81 µM | 9.35 µM | 8.06 µM | 20.4 µM | 20.4 µM | 39 µM | 18 µM | 40.7 µM | – | – | – | – | 12.2 µM | 31.8 µM | 28.7 µM | 44.9 µM | 20.2 µM | 13.9 µM |
| COc1ccc(-c2n[nH]nc2-c2csc3ccccc23)cc1OC | 3.94 µM | 76 µM | 3.64 µM | 59 µM | 2.83 µM | 8.79 µM | 8.8 µM | 79.9 µM | 4.67 µM | 45.1 µM | – | – | 3.09 µM | 43.9 µM | 2.98 µM | 19.8 µM | > 100 µM | 74.6 µM | 13.2 µM | 6.33 µM |
| COc1ccc2[nH]cc(-c3nc(-c4cn(C)c5ccncc45)cs3)c2c1 | 1.82 µM | 3.21 µM | – | – | 1.64 µM | 3.04 µM | 1.64 µM | 3.08 µM | 1.79 µM | 3.57 µM | – | – | 1.95 µM | 3.81 µM | 1.48 µM | 3.12 µM | 4.51 µM | 45.9 µM | 18.3 µM | 2.14 µM |
| CCC[CH2][Sn]([CH2]CCC)([O]C(=O)c1cccc(F)c1)[O]C(=O)c1cccc(F)c1 | 1.3 µM | 2.59 µM | 0.329 µM | 2.02 µM | 1.39 µM | 2.76 µM | 1.29 µM | 3.16 µM | 0.369 µM | 1.39 µM | – | – | – | – | 1.29 µM | 2.58 µM | 3.83 µM | 2.4 µM | 1.16 µM | 2.05 µM |
| CC(=O)OC12c3ccccc3C1CCCCCC21OCCCO1 (stereo not drawn) | – | > 100 µM | – | > 100 µM | – | > 100 µM | – | > 100 µM | – | > 100 µM | – | > 100 µM | – | – | – | > 100 µM | > 100 µM | > 100 µM | – | – |
| C=CC1CC12C(=O)C1OC2(C)C2C(=O)c3c(ccc4c3ccc3ccccc34)C(=O)C12 (stereo not drawn) | 27.5 µM | 88.1 µM | 12 µM | > 100 µM | – | – | 64.3 µM | > 100 µM | > 100 µM | > 100 µM | – | – | – | – | 52.9 µM | > 100 µM | > 100 µM | > 100 µM | 54.1 µM | > 100 µM |
| CCCCCCCCCCCCCCCC(=O)OCC(O)C1OC(=O)C(O)=C1O (stereo not drawn) | – | 98.7 µM | – | – | – | > 100 µM | – | 96.9 µM | – | 91.4 µM | – | > 100 µM | – | > 100 µM | – | – | > 100 µM | 47.1 µM | – | – |
| O=C1CCCC/C1=C/C=C/c1ccccc1 | – | > 100 µM | – | > 100 µM | – | > 100 µM | – | > 100 µM | – | > 100 µM | – | – | – | > 100 µM | – | > 100 µM | > 100 µM | > 100 µM | – | – |
| CC(=O)O[C@@H]1CO[C@H]2O[C@H]3[C@@H](C(C=O)=C[C@H](O)[C@@H]4C5=C(C(C)C)CC[C@]5(C)CC[C@@]34C)[C@@]2(O)C1=O | – | 0.281 µM | – | 1.6 µM | – | 0.577 µM | – | 0.448 µM | – | 1.97 µM | – | – | – | 0.213 µM | – | 0.596 µM | 0.943 µM | 1.02 µM | – | – |
| CCCN(CCC)c1ccc(CO)c(C)c1 | 81 µM | > 100 µM | 18.4 µM | 50 µM | 18.9 µM | 62.3 µM | 79.4 µM | > 100 µM | > 100 µM | > 100 µM | – | – | > 100 µM | > 100 µM | 13.8 µM | 61 µM | 25.3 µM | 23.7 µM | 9.4 µM | 11.3 µM |
| COc1ccc2c3c1C(=O)CCC3CO2 (stereo not drawn) | – | > 100 µM | – | > 100 µM | – | > 100 µM | – | > 100 µM | – | > 100 µM | – | – | – | > 100 µM | – | > 100 µM | > 100 µM | – | – | – |

Reference: PubChem BioAssay (NCI)
